Assay in data set [1]: not given
The source holds these as a separate data set.

Assay in data set [2]: not given
The source holds these as a separate data set.

Assay in data set [3]: not given
This is another data set of the same source.

Assay in data set [4]: not given
This is another data set of the same source.

Data set [5] is described as follows: method code SF-RC, from DOI: 10.1016/j.ejmech.2016.07.069, PMID: 27565554. The settings on record: pH 7.4.
The nature of data set [6]: method code SF, from DOI: 10.1248/cpb.35.4144, PMID: 3435941. The settings on record: pH 6.8.
Assay in data set [7]: not given
The source holds these as a separate data set.

Data set [8] is described as follows: from Kyomura, N., Fukuchi, T., Kohyama, Y., & Motojima, S. (1990). Biological characteristics of new acaricide MK-239. In Brighton Crop Protection Conference, Pests and Diseases - 1990 (Vol. 1, pp. ….
Data set [9] in a line: method code SF, from DOI: 10.1007/bf02222191, PMID: 2473627.
Assay in data set [10]: not given
This is another data set of the same source.

Assay in data set [11]: not given
The source holds these as a separate data set.

Data set [12] is described as follows: method code SF-AS, from DOI: 10.1002/pauz.19770060602.
Data set [13] is described as follows: method code SF-HPLC, from PMID: 11745753. The settings on record: pH 11.0.
A short description of data set [14]: method code SF, from DOI: 10.1016/j.bmcl.2012.08.112, PMID: 23010264. The settings on record: pH 7.4.
Data set [15] can be described thus: method code SF-HPLC, from DOI: 10.1002/jps.2600840622. The settings on record: pH 7.0.
Assay in data set [16]: not given
This is another data set of the same source.

Data set [17] can be described thus: method code SF-HPLC, from Liang, J.; Deng, J. (2011). Determination of n-octanol/wanter Partition Coefficient of Mangiferin. West China Journal of Pharmaceutical Sciences, 26(2)193-195. The note with it: pH 2.5.
Data set [18] in a line: method code SF-HPLC, from DOI: 10.1211/0022357011778025, PMID: 11732751. The settings on record: pH 5.0.
The nature of data set [19]: method code SF-AS, from DOI: 10.1021/jm00170a024, PMID: 2374146.
Assay in data set [20]: not given
The source holds these as a separate data set.

Data set [21] can be described thus: method code SF, from DOI: 10.1007/978-94-011-1472-1_81.
Assay in data set [22]: not given
The source holds these as a separate data set.

Assay in data set [23]: not given
This is another data set of the same source.

Data set [24] in a line: method code SF, from DOI: 10.1021/jm00123a006, PMID: 2918500. The settings on record: pH 7.4.
Assay in data set [25]: not given
The source holds these as a separate data set.

Assay in data set [26]: not given
This is another data set of the same source.

Assay in data set [27]: not given
The source holds these as a separate data set.

Assay in data set [28]: not given
This is another data set of the same source.

Data set [29] is described as follows: method code SF-AS, from PMID: 4096735. The settings on record: pH 7.4.
Data set [30] can be described thus: method code SF-RC, from Godoy, N.; Valle, L.; Mena, P.; Gil, M. (1989). Synthesis, labeling and biodistribution of 99mTc-labelled bromoimino diacetic acids. Nucleotecnica, 9(17)25-32.
Data set [31] can be described thus: method code SF-RC, from DOI: 10.1016/j.bmcl.2015.05.048, PMID: 26073008. The settings on record: pH 7.4.
Data set [32] can be described thus: method code SF-HPLC, from DOI: 10.1002/jps.2600830510, PMID: 8071813.
The nature of data set [33]: method code SF-AS, from DOI: 10.1016/0048-3575(88)90061-2.
Data set [34] can be described thus: method code SF, from DOI: 10.1021/bk-1995-0606.ch008.
Assay in data set [35]: not given
The source holds these as a separate data set.

Assay in data set [36]: not given
The source holds these as a separate data set.

Turning to `CN1CCN2c3ccccc3Cc3ccccc3C2C1` (configuration not stated), the logP was 4.
`CC1N=C2C3CC(c4ccccc4)CCC3C=CN2C1C` (configuration not stated) registered a logP in data set [1] of 3.9.
`Cc1ccc(/C(=C\CN2CCCC2)c2ccccn2)cc1` yielded a logP in [2] of 3.87.
For `Cc1ccccc1C(OCCN(C)C)c1ccccc1` (configuration not stated), the lipophilicity (logP) in data set [3] amounted to 3.77.
Regarding `CCN(CC)CCCN1c2ccccc2Sc2ccc(Cl)cc21`, the logP in [4] is 6.46.
As to `COc1cc2c(cc1I)C/C(=C\c1ccc(N(C)C)cc1)C2=O`, the log distribution coefficient (logD) in data set [5] is 3.45.
With `COC(=O)C1=C(C)NC(C)=C(P2(=O)OCCCO2)C1c1ccccc1[N+](=O)[O-]` (configuration not stated), the logD in data set [6] stood at 1.3.
`O=C(NN1C(=O)[C@@H]2[C@@H]3C=C[C@@H]([C@H]4C[C@@H]34)[C@@H]2C1=O)c1ccc(C(F)(F)F)cc1` gave a logP in data set [7] of 2.36.
Regarding `CCc1nn(C)c(C(=O)NCc2ccc(C(C)(C)C)cc2)c1Cl`, in [8], the logP was determined as 4.61.
Compound `CC(C)NCC(O)COc1ccccc1C1CCCCC1` (configuration not stated) had a logP in [9] of 2.86.
Regarding `CC[C@@H](c1ccc(O)cc1)[C@H](CCF)c1ccc(O)cc1`, in data set [10], the logP worked out at 4.03.
In data set [11], `CNCCC=C1c2ccccc2CCc2ccccc21` showed a logP of 4.4.
The compound `O=C1CN=C(c2ccccc2)c2cc(Cl)ccc2N1CC1CC1` showed a logP in data set [12] of 3.31.
As to `CCCCN1CCCCC1C(=O)Nc1c(C)cccc1C` (configuration not stated), the logD in data set [13] amounted to 3.35.
In turn, `COCC(C1CC1)n1cc(Cl)nc(Nc2cc(C)c(OC)cc2C)c1=O` (configuration not stated) had a log distribution coefficient (logD) in [14] of 4.4.
`CCN1CCN(c2cc3c(cc2F)c(=O)c(C(=O)O)cn3CC)CC1` showed a logD in [15] of 0.37.
On to `COc1c(OC)c(OC(C)=O)c2cc(NC(C)=O)ccc2c1OC(C)=O`, for which the log partition coefficient (logP) in [16] came out at 2.
`O=c1c2cc(O)c(O)cc2oc2cc(O)c([C@@H]3O[C@H](CO)[C@@H](O)[C@H](O)[C@H]3O)c(O)c12` returned a logD in data set [17] of 0.36.
`CCN(CC)C(=O)C(C#N)=Cc1cc(OC(=O)C(C)(C)C)c(O)c([N+](=O)[O-])c1` showed a logD in data set [18] of 2.24.
`CCOP(=O)(Cc1ccc(-c2nc3ccccc3s2)cc1)OCC` yielded a logP in [19] of 3.5.
Regarding `Cc1onc(-c2ccccc2)c1C(=O)NC1C(=O)N2C1SC(C)(C)C2C(=O)O` (configuration not stated), the logP in data set [20] is 2.34.
Turning to `Cc1cccc2c1Sc1ccccc1C2NC(=O)CN(C)C` (configuration not stated), in [21], the lipophilicity (logP) stood at 3.24.
In data set [22], `O=S(=O)(c1ccc(F)cc1)C1CCN(CCc2ccc(F)cc2F)CC1` had a lipophilicity (logP) of 2.47.
Take `CC12CCC3c4ccc(O)cc4CCC3C1CC(F)C2O` (configuration not stated): in data set [23], the logP is 2.98.
On to `[N-]=[N+]=Nc1ccc(CCN2CCN(c3cccc(C(F)(F)F)c3)CC2)cc1I`, for which the logD in [24] amounted to 3.33.
The compound `CC(C)(C)NCC(COc1nsnc1N1CCOCC1)OC(=O)C1CCC1` (configuration not stated) gave a logP in data set [25] of 2.36.
Consider `COc1ccc2c3c1O[C@H]1[C@@H](O)C=C[C@H]4[C@@H](C2)N(C)CC[C@@]341`, for which the logP in data set [26] was found to be 1.22.
In [27], `C=CCN1CC[C@@]23CCCC[C@H]2[C@@H]1Cc1ccc(O)cc13` came in with a logP of 3.48.
Compound `COC(=O)c1cc(OC)c2c(c1-c1c(CO)cc(OC)c3c1OCO3)OCO2` displayed a logP in [28] of 1.7.
`CCOC(=O)CCCCOc1ccc(-c2nc3c(N)nc(N)nc3nc2N)cc1`: in data set [29], the log distribution coefficient (logD) is 0.8.
Turning to `CC(C)c1ccc(Br)c(C(C)C)c1NC(=O)CN(CC(=O)O)CC(=O)O`, the log partition coefficient (logP) in data set [30] is 0.2.
In turn, `COc1ccc(/C=C/c2cc(=O)c3cc(I)ccc3o2)cc1OC` yielded a log distribution coefficient (logD) in data set [31] of 2.14.
With `O=C(OCCN1CCOCC1)c1ccccc1Nc1c(Cl)cccc1Cl`, in data set [32], the log partition coefficient (logP) was determined as 2.72.
In data set [33], `O=C(NC(=O)c1c(F)cccc1F)Nc1ccc(Oc2ncc(Cl)cc2Cl)cc1` yielded a logP of 3.27.
The compound `O=C(Nc1ccc(F)cc1F)c1cccnc1Oc1cccc(C(F)(F)F)c1` showed a log partition coefficient (logP) in data set [34] of 4.49.
In data set [35], `CN1CCN(CC(=O)N2c3ccccc3C(=O)Nc3cccnc32)CC1` came in with a log partition coefficient (logP) of 0.1.
Regarding `CC(C)(Oc1ccccc1)C(=O)N[C@@H]1C(=O)N2[C@@H]1SC(C)(C)[C@@H]2C(=O)O`, the logP in data set [36] turned out to be 2.76.

These data come from the SangsterLogP compilation.
